Measurements published in patent US10047058B2, “Compounds and methods for inhibiting vacuolar ATPase” (University of Southern California, priority 2015, dated 2018).

Assays:
ATP6V1A = ATP6V1A (Homo sapiens, UniProt P38606)
[1] = test system: MB231 breast cancer cells; settings: cited from earlier work
mammalian cells = settings: cited from earlier work

ATP6V1A, sequence (P38606 whole entry): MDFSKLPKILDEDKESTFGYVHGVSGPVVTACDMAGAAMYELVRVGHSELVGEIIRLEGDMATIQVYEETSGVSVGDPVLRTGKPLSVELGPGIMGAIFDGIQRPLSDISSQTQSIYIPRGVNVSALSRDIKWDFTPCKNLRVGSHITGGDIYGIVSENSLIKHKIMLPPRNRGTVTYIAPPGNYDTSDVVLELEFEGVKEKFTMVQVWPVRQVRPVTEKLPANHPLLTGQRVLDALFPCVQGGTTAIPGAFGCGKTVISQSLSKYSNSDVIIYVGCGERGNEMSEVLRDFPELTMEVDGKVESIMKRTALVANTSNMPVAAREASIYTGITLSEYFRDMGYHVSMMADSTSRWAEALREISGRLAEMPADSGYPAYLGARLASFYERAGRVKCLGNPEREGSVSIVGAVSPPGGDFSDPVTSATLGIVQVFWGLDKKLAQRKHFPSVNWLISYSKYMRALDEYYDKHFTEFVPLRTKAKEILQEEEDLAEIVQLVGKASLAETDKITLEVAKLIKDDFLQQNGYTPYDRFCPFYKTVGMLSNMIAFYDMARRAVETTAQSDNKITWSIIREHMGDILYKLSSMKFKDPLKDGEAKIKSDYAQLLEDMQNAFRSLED

O=C(CCl)Nc1ccc2c(Nc3ccccc3)ncnc2c1 [Formula I]
IC50 (ATP6V1A): ~30 nM | inhibition of probe QZ1 labeling (screen of electrophilic quinazolines) (ATP6V1A; 1 μM, cells pretreated with drug 30 min, then probe for 30 min): showed potent inhibition

CO/C1=C\C(C)=C\[C@@H](C)[C@@H](O)[C@@H](C)C/C(C)=C/C=C/[C@H](OC)[C@@H]([C@@H](C)[C@@H](O)[C@H](C)[C@@]2(O)C[C@@H](O)[C@H](C)[C@@H](C(C)C)O2)OC1=O [bafilomycin]
effect on invasiveness of cancer cells [1]: significantly inhibited

archazolid
concentration that blocks growth of mammalian cells (mammalian cells): subnanomolar
